Experimental data as given in patent US7037919B1, “Tetrahydroquinoline derivatives” (Kaken Pharmaceutical Co. Ltd., priority 1999, dated 2006).

Assays:
[1] = target: T1, Rat androgen receptors (rat AR) (Rattus norvegicus, UniProt P15207); assay: Test for competitive binding to rat androgen receptors; conditions: 3H-testosterone, rat prostate AR fraction; hydroxyflutamide taken as 100
T1 construct: from tissue; host or cells: prostate of orchiectomized male SD rats (100,000 x g supernatant)
T1 sequence (P15207 1-902): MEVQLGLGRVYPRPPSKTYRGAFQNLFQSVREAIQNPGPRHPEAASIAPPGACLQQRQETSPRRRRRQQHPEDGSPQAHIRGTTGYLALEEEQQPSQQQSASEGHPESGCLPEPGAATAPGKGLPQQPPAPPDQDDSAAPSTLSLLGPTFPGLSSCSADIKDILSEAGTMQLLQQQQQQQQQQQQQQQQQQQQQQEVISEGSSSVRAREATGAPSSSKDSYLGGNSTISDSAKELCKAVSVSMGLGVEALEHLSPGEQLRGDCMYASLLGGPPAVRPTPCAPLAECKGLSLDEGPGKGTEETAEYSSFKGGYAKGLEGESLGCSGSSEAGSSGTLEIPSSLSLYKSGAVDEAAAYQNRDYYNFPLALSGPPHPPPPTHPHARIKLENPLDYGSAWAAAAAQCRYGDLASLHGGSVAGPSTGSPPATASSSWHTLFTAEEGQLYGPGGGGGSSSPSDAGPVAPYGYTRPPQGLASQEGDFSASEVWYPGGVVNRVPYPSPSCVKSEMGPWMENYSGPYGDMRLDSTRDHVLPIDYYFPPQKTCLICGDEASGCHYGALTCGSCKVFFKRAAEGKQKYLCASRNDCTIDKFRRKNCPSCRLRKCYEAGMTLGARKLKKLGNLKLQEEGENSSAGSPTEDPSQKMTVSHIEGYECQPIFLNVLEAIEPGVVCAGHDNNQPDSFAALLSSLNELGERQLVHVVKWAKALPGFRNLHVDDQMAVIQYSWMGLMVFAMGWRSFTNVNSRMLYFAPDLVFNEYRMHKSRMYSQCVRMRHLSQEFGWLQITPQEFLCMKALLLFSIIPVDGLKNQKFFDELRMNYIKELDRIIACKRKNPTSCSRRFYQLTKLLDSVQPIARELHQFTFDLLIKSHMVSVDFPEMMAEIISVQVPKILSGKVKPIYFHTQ
Description: Test for Competitive Binding to Rat Androgen Receptors (Rat AR)
Preparation of rat AR fraction: Prostates were harvested into ice-cooled ET buffer (10 mM Tris, 1 mM EDTA, 5 mM DTT, 10 mM sodium molybdate, pH 7.4) 3 days after orchiectomy in 11-week-old male SD rats. The prostate was finely cut, and ET buffer was added, whereafter the mixture was homogenized using a homogenizer. The homogenate was ultracentrifuged (100,000×g, 60 min, 4° C.), and the supernatant was used as a rat AR fraction (hereinafter referred to as ARF).
Binding test: ^3H-testosterone (hereinafter referred to as ^3H-T) was diluted with ET buffer. Dihydrotestosterone (DHT) was prepared so as to have a concentration (final concentration 1 μM) 400 times the maximum concentration of ^3H-T (2.5 nM). The ^3H-T solution was added to a 1.5 ml tube containing DHT, no DHT, or the test compound with a varying concentration. Further, 200 μg ARF was added to adjust the final volume to 100 μl. The mixture was incubated for 2 hours at 4° C., and then 300 μl of a 0.05% dextran T70-1.0% activated carbon solution was added. The mixture was further incubated for 15 minutes in ice to remove the free ^3H-T. After centrifugation (4° C., 2,500 rpm, 5 min), 275 μl of the supernatant was harvested into a liquid scintillation vial, and 2 ml of clear-sol was added. The mixture was stirred, allowed to stand, and measured for ^3H radioactivity with a liquid scintillation counter.
Calculation of the relative binding inhibition rate: The binding inhibition rate (%) of the compound according to the present invention was calculated from the following equation, and the 50% inhibition concentration (IC50) was calculated by the probit analysis of the concentration-binding inhibition curve.
The relative binding inhibition rate (RBA: Relative Binding Affinity) was obtained from the following equation (Endocrinology 138, 863-870, 1997): RBA=100×(IC50 of hydroxyflutamide)/(IC50 of the compound of the present invention) • RBA's of the compounds of the present invention, calculated as above, are shown in Table 10.

[2] = tested on: orchiectomized (ORX) rats; assay: Action of increasing prostate weight in orchiectomized (ORX) rats (Test Example 3); type: in vivo, rat; conditions: 30 mg/kg s.c. once daily for 8 days, ORX SD rats, Mean ± SD
Description: Action of Increasing Prostate Weight in Rats After Orchiectomized (ORX) Rats
Orchiectomy was performed in 8-week-old male SD rats. From 5 days postoperation, the compound of the present invention (Example 60, 30 mg/kg), dissolved in a 5% dimethyl sulfoxide-containing olive oil solution, was subcutaneously injected once daily for 8 days. On the next day after final administration, the wet weight of the ventral prostate was measured to evaluate the AR agonistic effect of the compound of the present invention.

[3] = tested on: orchiectomized (ORX) rats; assay: Action of increasing prostate weight and bone mineral density in orchiectomized (ORX) rats (Test Example 4); type: in vivo, rat; conditions: 60 mg/kg s.c. once daily, 5 days weekly, 4 weeks, ORX SD rats, Mean ± SD; for Bone mineral density: right femur
Description: Action of Increasing Prostate Weight and Bone Mineral Density in Orchiectomized (ORX) Rats
Orchiectomy was performed in 12-week-old male SD rats. From the next day postoperation, the positive control compound dihydrotestosterone (DHT, 10 mg/kg) and the compound of the present invention (Example 60, 60 mg/kg), each dissolved in a 5% dimethyl sulfoxide-containing olive oil solution, were subcutaneously injected once daily, 5 days weekly, for 4 weeks. On the next day after final administration, the wet weight of the ventral prostate was measured to evaluate the AR agonistic effect of the compound of the present invention. On the next day following final administration, moreover, the right femur was removed, and fixed overnight in a 10% neutrally buffered formalin solution. Then, the bone mineral density at the site ranging from the diaphysis to the proximal end was measured by the method of double energy X-ray absorption using a bone mineral content-measuring machine (Aloka, DCS-600) to evaluate increasing action of bone mineral density of the compound of the present invention.

AR = assay: Assignment of compounds as having AR agonistic or AR antagonistic action (description, no method given); conditions: compounds named as usable for category A diseases
orchiectomized rats = assay: Inhibitory action on testosterone-induced prostate weight increase in orchiectomized rats (Test Example 5); type: in vivo, rat; conditions: TP 1 mg/kg s.c. alone, once daily for one week, orchiectomized SD rats, Mean ± SD
Description: Inhibitory Action on Testosterone-induced Prostate Weight Increase in Orchiectomized Rats
Testes were removed from 8-week-old male SD rats. From 5 days postoperation, 1 mg/kg of testosterone propionate (hereinafter referred to as TP) and 30 mg/kg of the compound of the present invention were simultaneously injected once daily for one consecutive week. The compound of the present invention was suspended in a 0.5% methyl cellulose solution, while TP was dissolved in cottonseed oil containing 5% ethanol. Each of the test compounds was subcutaneously administered. On the next day after final administration, the wet weight of the ventral prostate was measured to evaluate the AR antagonistic effect of the compound of the present invention on TP-induced prostate weight increase.

Compound	RBA (Relative Binding Affinity = 100 x IC50 of hydroxyflutamide / IC50 of the compound) [1]	Weight of prostate [2]	Prostate weight [3]	Prostate weight ([3]; listed as Ex. 60) [mg/body weight 100 g]	Bone mineral density ([3]; 60 mg/kg)	Bone mineral density ([3]; listed as Ex. 60, 60 mg/kg) [mg/cm^2]	AR agonistic action (AR)	Prostate weight (orchiectomized rats) [mg/body weight 100 g]
CCS(=O)(=O)NCC(C)(C)C1Nc2ccc([N+](=O)[O-])cc2C2C=CCC21 (centres unmarked) [Example 60]	814	significantly increased the prostate weights	significant increases in the prostate weights	56 ± 13	significantly increased the bone mineral density	132 ± 7	AR agonistic action	–
CCC(=O)O[C@H]1CC[C@H]2[C@@H]3CCC4=CC(=O)CC[C@]4(C)[C@H]3CC[C@]12C [TP, testosterone propionate]	–	–	–	–	–	–	–	80.4 ± 13.7
